Target: T1, Salmonella enterica LT2 α-D-glucopyranosyl phosphate thymidylyltransferase (Ep) (Salmonella typhimurium, UniProt P26393)
T1 construct: made in house; host or cells: E. coli (E. coli-prfbA-C)
Experiment: Ep-catalyzed conversion of α-D-hexopyranosyl phosphates and NTP to NDP-sugars, HPLC (FIG. 2)
Type: biochemical
Details: 5 mM NTP, 10 mM sugar phosphate, 30 min, 37° C.
Description: FIG. 2. E^p-Catalyzed Conversion of Substrates wherein superscript indicators (a)–(h) are as follows: (a) Percent conversion=[Ap/(AP+AT)]×100, where AP is the NDP-sugar product peak integration and AT represents the NTP peak integration. HRMS for all observed products reported in the supporting information. (b) Standard retention times: TDP, […]; TTP, 7.2 mm; UDP, 4.0 mm; UTP, 6.1 mm. (c) Commercially available. (d) Coelutes with commercially available standard. […] (f) Adjusted for the 2:1 α/β-28. (g) In contrast to previously published studies (See Lindquist, L; Kaiser, R.; Reeves, P. R.; Lindberg, A. A., Eur J. Biochem, 1993, 211, 763–770). (h) No products observed.
To evaluate the synthetic utility of purified thymidylyltransferase, Ep, α-D-hexopyranosyl phosphate, Mg^+2 and NTP were incubated at about 37° C. for about 30 min and the extent of product formation determined by HPLC. The results of these assays are illustrated in FIG. 2. Confirmation of product formation was based upon HPLC co-elution with commercially available standards and/or HPLC isolation and high resolution mass spectroscopy of the product. […] A reaction containing 5 mM NTP, 10 mM sugar phosphate and 5.5 mM MgCl2 in a total volume of 50 μL 50 mM potassium phosphate buffer, pH 7.5 at 37° C. was initiated by the addition of 3.52 U Ep (1 U=the amount of protein needed to produce 1 μmol TDP-D-glucose min^−1). The reaction was incubated with slow agitation for 30 min at 37° C., quenched with MeOH (50 μL), centrifuged (5 min, 14,000×g) and the supernatant was stored at −20° C. until analysis by HPLC. Samples (20 μL) were resolved on a Sphereclone 5 u SAX column (250×4.6 mm) fitted with a guard column (30×4.6 mm) using a linear gradient (20–60 mM potassium phosphate buffer, pH 5.0, 1.5 mL min^−1, A275 nm).

| Compound | activity as Ep substrate with TTP |
| --- | --- |
| Ethyl 2,3,4,6-tetra-O-benzyl-1-thio-β-D-gulopyranoside [compound 31] | less activity |
| O=P([O-])([O-])O[C@@H]1C[C@@H](O)[C@H](O)[C@@H](CO)O1.[Na+].[Na+] [compound 43, Disodium 2-deoxy-α-D-glucopyranosyl Phosphate] | prefers |
| O=P([O-])([O-])O[C@H]1O[C@H](CO)[C@H](O)[C@@H](O)[C@@H]1O.[Na+].[Na+] [compound 51, Disodium α-D-idopyranosyl Phosphate] | less activity |
| O=P([O-])([O-])O[C@H]1O[C@H](CO)C[C@H](O)[C@H]1O.[Na+].[Na+] [compound 20, Disodium 4-deoxy-α-D-glucopyranosyl Phosphate] | prefers |
| C[C@H]1O[C@H](OP(=O)([O-])[O-])[C@H](O)[C@@H](O)[C@@H]1O.[Na+].[Na+] [compound 12, Disodium 6-deoxy-α-D-glucopyranosyl Phosphate] | prefers |
| O=P([O-])([O-])O[C@H]1O[C@H](CO)[C@H](O)[C@H](O)[C@@H]1O.[Na+].[Na+] [compound 55, Disodium α-D-talopyranosyl Phosphate] | less activity |
| O=P(O)(O)O[C@H]1O[C@H](CO)[C@@H](O)[C@H](O)[C@@H]1O [compound 56, α-D-mannopyranosyl phosphate, reference compound] | prefers |
| O=P([O-])([O-])O[C@H]1O[C@H](CO)[C@@H](O)C[C@H]1O.[Na+].[Na+] [compound 28, Disodium 3-deoxy-α-D-glucopyranosyl Phosphate] | prefers |
| O=P([O-])([O-])O[C@H]1O[C@H](CO)[C@@H](O)[C@@H](O)[C@@H]1O.[Na+].[Na+] [compound 47, Disodium α-D-altropyranosyl Phosphate] | less activity |
| O=P(O)(O)O[C@H]1O[C@H](CO)[C@H](O)[C@H](O)[C@H]1O [compound 57, α-D-galactopyranosyl phosphate, reference compound] | prefers |

Same assay, conditions: FIG. 2 footnote (e), TTP reaction

| Compound | Product hydrolysis observed, TDP |
| --- | --- |
| O=P([O-])([O-])O[C@@H]1C[C@@H](O)[C@H](O)[C@@H](CO)O1.[Na+].[Na+] [compound 43, Disodium 2-deoxy-α-D-glucopyranosyl Phosphate] | 7.6% |

Same assay, conditions: FIG. 2 footnote (e), UTP reaction

| Compound | Product hydrolysis observed, UDP |
| --- | --- |
| O=P([O-])([O-])O[C@@H]1C[C@@H](O)[C@H](O)[C@@H](CO)O1.[Na+].[Na+] [compound 43, Disodium 2-deoxy-α-D-glucopyranosyl Phosphate] | 10.2% |

Same assay, conditions: NTP substrate specificity

| Compound | utilization as NTP substrate by Ep |
| --- | --- |
| Nc1ccn([C@@H]2O[C@H](COP(=O)(O)OP(=O)(O)OP(=O)(O)O)[C@@H](O)[C@H]2O)c(=O)n1 [CTP, reference compound] | not and not accepted |
| O=c1ccn([C@@H]2O[C@H](COP(=O)(O)OP(=O)(O)OP(=O)(O)O)[C@@H](O)[C@H]2O)c(=O)[nH]1 [UTP, reference compound] | utilizes |

From patent US7122359B2, “Active-site engineering of nucleotidylyltransferases and general enzymatic methods for the synthesis of natural and “unnatural” UDP- and TDP-nucleotide sugars” (priority 2000, dated 2006)
